The values below come from ChEMBL document CHEMBL6127080, “Design, synthesis and biological evaluation of novel diphenylamine analogues as NLRP3 inflammasome inhibitors” (Bioorg Med Chem, 2024).

Series [1] in a line: Stability in rat liver homogenate incubated measured upto 48 hrs by HPLC method. Type of series: ADME, tissue-based. The note with it: tissue homogenate.
A short description of series [2]: Stability in rat plasma incubated measured upto 48 hrs by HPLC method. It is filed as ADME, cell-free.
The target of series [3] is NACHT, LRR and PYD domains-containing protein 3 (Mus musculus, UniProt Q8R4B8). Briefly: Inhibition of NLRP3 inflammasome activation in mouse […] cells assessed as reduction in LPS/ATP-induced IL-1 beta release pretreated with LPS for 4.5 hrs followed by compound addition for 30 mins prior to ATP addition and measured after 30 mins by ELISA. Type of series: cell-based, J774.A1. Background: In an ELISA, binding on a coated surface is turned into a signal by an enzyme label.

A short description of series [4]: Cytotoxicity against mouse J774.A1 cells. It is filed as toxicity, cell-based.
The target of series [5] is NACHT, LRR and PYD domains-containing protein 3 (Mus musculus) (UniProt Q8R4B8). Kind of series: Inhibition of NLRP3 inflammasome activation in mouse […] cells assessed as reduction in LPS/ATP-induced IL-1 beta release at 1 uM pretreated with LPS for 4.5 hrs followed by compound addition for 30 mins prior to ATP addition and measured after 30 mins by ELISA relative to control. It is filed as cell-based. The settings on record: J774.A1, time 5.5 hrs.

For series [6] the target is unchanged. Briefly: Inhibition of NLRP3 inflammasome activation in mouse […] cells assessed as reduction in LPS/ATP-induced IL-1 beta release at 10 uM pretreated with LPS for 4.5 hrs followed by compound addition for 30 mins prior to ATP addition and measured after 30 mins by ELISA relative to control. Type of series: cell-based. The settings on record: J774.A1, time 5.5 hrs.

The test system of series [7] is J774.A1. Briefly: Cytotoxicity against mouse J774.A1 cells at 50 uM. The note with it: j774.a1, 5.5 h. It is filed as toxicity, cell-based.

Molecules are shown by their SMILES. pIC50: −log10 of the molar value. Where only a bound is given, the exact number is not on record here.

Chain of NACHT, LRR and PYD domains-containing protein 3 (Q8R4B8 whole entry, the tested form may be a part): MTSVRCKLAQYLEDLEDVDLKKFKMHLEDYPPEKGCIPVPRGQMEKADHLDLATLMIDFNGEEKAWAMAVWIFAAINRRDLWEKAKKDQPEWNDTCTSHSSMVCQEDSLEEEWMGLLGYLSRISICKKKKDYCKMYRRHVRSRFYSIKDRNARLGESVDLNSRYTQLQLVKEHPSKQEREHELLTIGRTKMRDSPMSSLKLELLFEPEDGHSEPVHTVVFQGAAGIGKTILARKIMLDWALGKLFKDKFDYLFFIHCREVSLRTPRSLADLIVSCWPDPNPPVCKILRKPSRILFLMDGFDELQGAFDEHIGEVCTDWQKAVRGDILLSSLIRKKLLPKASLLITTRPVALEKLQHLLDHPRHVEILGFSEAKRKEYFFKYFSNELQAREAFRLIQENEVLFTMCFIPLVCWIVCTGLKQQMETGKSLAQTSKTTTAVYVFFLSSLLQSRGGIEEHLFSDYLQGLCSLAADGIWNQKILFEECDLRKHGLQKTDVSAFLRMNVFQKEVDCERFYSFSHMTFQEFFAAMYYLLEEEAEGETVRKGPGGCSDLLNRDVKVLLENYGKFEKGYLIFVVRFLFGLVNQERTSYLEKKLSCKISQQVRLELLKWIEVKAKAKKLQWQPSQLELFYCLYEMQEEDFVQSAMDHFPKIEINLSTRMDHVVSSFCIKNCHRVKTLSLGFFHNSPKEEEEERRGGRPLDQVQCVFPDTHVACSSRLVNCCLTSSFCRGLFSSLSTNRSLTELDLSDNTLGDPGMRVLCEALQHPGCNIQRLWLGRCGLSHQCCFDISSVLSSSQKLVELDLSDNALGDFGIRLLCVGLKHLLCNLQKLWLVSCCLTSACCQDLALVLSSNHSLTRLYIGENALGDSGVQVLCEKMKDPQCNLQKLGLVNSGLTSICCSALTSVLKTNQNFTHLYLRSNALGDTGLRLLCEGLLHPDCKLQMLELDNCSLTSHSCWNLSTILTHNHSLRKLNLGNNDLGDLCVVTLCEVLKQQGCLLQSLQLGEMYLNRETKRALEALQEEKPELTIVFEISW
Chain of NACHT, LRR and PYD domains-containing protein 3 (Mus musculus) (Q8R4B8 whole entry, the tested form may be a part): as above

By pIC50 is commonly meant the IC50 on a negative log10 scale, so that one unit is a factor of ten. On to `CCC(=O)Nc1ccc(-c2ccccc2N(Cc2cc(Cl)ccc2OCCOC)C(=O)c2ccc(F)cc2)cc1`, for which the Stability result in series [1] and in series [2] was “Stable” throughout. Besides, the figures for the pIC50 in series [3] and in series [4] were 6.47 and 4.30, respectively.

One may read the inhibition as the change of the read-out against control, counted positive when it falls. Consider `COCCOc1ccc(Cl)cc1CN(C(=O)Cc1ccsc1)c1ccccc1-c1ccc(NC(=O)C(C)C)cc1`, for which the inhibition in series [5] is 11.1%; in series [6], 85.4%.

With `CCCCCC(=O)Nc1ccc(-c2ccccc2N(Cc2cc(Cl)ccc2OCCOC)C(=O)Cc2ccsc2)cc1`, the inhibition worked out at 67.5% in series [5] and 81.8% in series [6]. The pIC50 in series [3] is 6.23.

On to `CCC(=O)Nc1ccc(-c2ccccc2N(Cc2cc(F)ccc2OCCOC)C(=O)Cc2ccsc2)cc1`, for which the inhibition in series [5] amounted to 42.7%; in series [6], 83.8%.

For the compound `COCCOc1ccc(Cl)cc1CN(C(=O)Cc1ccsc1)c1ccccc1-c1ccc(NC(=O)Cc2ccccc2)cc1`, the inhibition in series [5] was found to be 44.5%; in series [6] it was 84.3%.

In the case of `C=CC(=O)Nc1ccc(-c2ccccc2N(Cc2cc(Cl)ccc2OCCOC)C(=O)Cc2ccsc2)cc1`, the figures for the inhibition in series [5] and in series [6] were 24.5% and 72.1%, respectively.

Turning to `CCCC(CCC)C(=O)Nc1ccc(-c2ccccc2N(Cc2cc(Cl)ccc2OCCOC)C(=O)Cc2ccsc2)cc1`, the inhibition was determined as 28.6% in series [5] and 58.1% in series [6].

`COCCOc1ccc(Cl)cc1CN(C(=O)Cc1ccsc1)c1ccccc1-c1ccc(NC(C)=O)cc1`: the inhibition in series [5] came out at 1.56%; in series [6], 33.9%.

With `CCCCS(=O)(=O)Nc1ccc(-c2ccccc2N(Cc2cc(Cl)ccc2OCCOC)C(=O)Cc2ccsc2)cc1`, the figures for the inhibition in series [5] and in series [6] were 51.5% and 73.7%, respectively.

For the compound `CCC(=O)Nc1ccc(-c2ccccc2N(Cc2cc(Cl)ccc2OCCOC)C(=O)Cc2ccsc2)cc1`, the inhibition is 72.3% in series [5] and 92.5% in series [6]. The pIC50 in series [3] was 6.07.

As for `COCCOc1ccc(Cl)cc1CN(C(=O)Cc1ccsc1)c1ccccc1-c1ccc(NC(=O)/C=C/c2ccccc2)cc1`, the inhibition in series [5] was found to be 11.9%; in series [6], 36.7%.

On to `COCCOc1ccc(Cl)cc1CN(C(=O)Cc1ccsc1)c1ccccc1-c1ccc(NC(=O)C2CCCCC2)cc1`, for which the inhibition is -2.37% in series [5] and 39.5% in series [6].

In the case of `COCCOc1ccc(Cl)cc1CN(C(=O)Cc1ccsc1)c1ccccc1-c1ccc(NC(=O)OCc2ccccc2)cc1`, the inhibition was 10.6% in series [5] and 54.4% in series [6].

As for `CC(C)(O)c1coc(S(=O)(=O)NC(=O)Nc2c3c(cc4c2CCC4)CCC3)c1`, the pIC50 in series [3] was 7.82.

Take `CCNC(=S)Nc1ccc(-c2ccccc2N(Cc2cc(Cl)ccc2OCCOC)C(=O)Cc2ccsc2)cc1`: the figures for the inhibition in series [5] and in series [6] were 29.2% and 78.4%, respectively.

In the case of `CCC(=O)Nc1ccc(-c2ccccc2N(Cc2cc(Cl)ccc2OCCOC)C(=O)c2cc(F)c(F)c(F)c2)cc1`, the results for the inhibition in series [5] and in series [6] were 52.5% and 77.4%, respectively.

Take `CCCS(=O)(=O)Nc1ccc(-c2ccccc2N(Cc2cc(Cl)ccc2OCCOC)C(=O)c2ccc(F)cc2)cc1`: the inhibition in series [5] worked out at 58.9%; in series [6], 67.6%.

With `CCNC(=O)Nc1ccc(-c2ccccc2N(Cc2cc(Cl)ccc2OCCOC)C(=O)Cc2ccsc2)cc1`, the inhibition was determined as 56.9% in series [5] and 84.4% in series [6].

On to `CCC(=O)Nc1ccc(-c2ccccc2N(Cc2cc(Cl)ccc2OCCOC)C(=O)Cc2ccc(F)cc2)cc1`, for which the figures for the inhibition in series [5] and in series [6] were 76.7% and 93.5%, respectively. The pIC50 in series [3] was 6.19.

`CCCCCC(=O)Nc1ccc(-c2ccccc2N(Cc2cc(Cl)ccc2OCCOC)C(=O)c2ccc(F)cc2)cc1`: the inhibition in series [5] was 7.12%; in series [6], 45.4%.

`CCC(=O)Nc1ccc(-c2ccccc2N(Cc2cc(Cl)ccc2OCC(C)(F)F)C(=O)Cc2ccsc2)cc1`: the values for the inhibition in series [5] and in series [6] were 70.1% and 89.9%, respectively. The pIC50 in series [3] was 6.26.

Turning to `CCC(=O)Nc1ccc(-c2ccccc2N(Cc2cc(F)ccc2OCC(C)(F)F)C(=O)Cc2ccsc2)cc1`, the inhibition in series [5] is 27.8%; in series [6] it was 74.8%.

As for `COCCOc1ccc(Cl)cc1CN(C(=O)Cc1ccsc1)c1ccccc1-c1ccc(NC(=O)CBr)cc1`, the inhibition in series [5] stood at 73%; in series [6], 90.5%. The Activity in series [7] is given as greater than 97%. Further, the negative-log IC50 (pIC50) in series [3] was 6.51.

In the case of `CCCS(=O)(=O)Nc1ccc(-c2ccccc2N(Cc2cc(Cl)ccc2OCCOC)C(=O)Cc2ccsc2)cc1`, the figures for the inhibition in series [5] and in series [6] were 31.4% and 61.1%, respectively.

For the compound `COCCOc1ccc(Cl)cc1CN(C(=O)Cc1ccsc1)c1ccccc1-c1ccc(NC(=O)[C@@H]2CCC(=O)N2)cc1`, the inhibition is 54.1% in series [5] and 84.5% in series [6]. For the same compound, the negative logarithm of the IC50 (pIC50) in series [3] was 6.07.

In the case of `CCS(=O)(=O)Nc1ccc(-c2ccccc2N(Cc2cc(Cl)ccc2OCCOC)C(=O)c2ccc(F)cc2)cc1`, the inhibition is 55.4% in series [5] and 68.2% in series [6].

Consider `C#CCCCC(=O)Nc1ccc(-c2ccccc2N(Cc2cc(Cl)ccc2OCCOC)C(=O)Cc2ccsc2)cc1`, for which the inhibition in series [5] is -0.88%; in series [6] it was 49.6%.

In the case of `CCC(=O)Nc1ccc(-c2ccccc2N(Cc2cc(Cl)ccc2OCCOC)C(=O)c2ccc(F)c(F)c2)cc1`, the inhibition came out at 36.1% in series [5] and 27.7% in series [6].

`COCCOc1ccc(Cl)cc1CN(C(=O)Cc1ccsc1)c1ccccc1-c1ccc(NC(=O)C2CC2)cc1`: the figures for the inhibition in series [5] and in series [6] were 27.8% and 63.9%, respectively.

On to `CCS(=O)(=O)Nc1ccc(-c2ccccc2N(Cc2cc(Cl)ccc2OCCOC)C(=O)Cc2ccsc2)cc1`, for which the results for the inhibition in series [5] and in series [6] were 27.5% and 42.5%, respectively.

Consider `CCC(=O)Nc1ccc(-c2ccccc2N(Cc2cc(Cl)ccc2OCCOC)C(=O)c2c(F)c(F)c(F)c(F)c2F)cc1`, for which the inhibition in series [5] is 39.7%; in series [6] it was 23.6%.

In the case of `CCC(=O)Nc1ccc(-c2ccccc2N(Cc2ccc(C(F)(F)F)cc2)C(=O)c2ccc(F)cc2)cc1`, the inhibition in series [5] stood at 49.7%; in series [6], 82.1%.

For `CCCC(=O)Nc1ccc(-c2ccccc2N(Cc2cc(Cl)ccc2OCCOC)C(=O)Cc2ccsc2)cc1`, the inhibition was found to be 53.9% in series [5] and 68.2% in series [6]. Moreover, in series [3], the pIC50 is 5.99.

In the case of `CCC(=O)Nc1ccc(-c2ccccc2N(Cc2ccc(F)cc2)C(=O)c2ccc(F)cc2)cc1`, the inhibition is 40.5% in series [5] and 39.6% in series [6].
